IC50, EC50 and TD50 data for 14 molecules are collected here from patent US7038084B2, “Succinoylamino hydroxyethylamino sulfonamides useful as retroviral protease inhibitors” (G.D. Searle & Co., priority 1992, dated 2006).

Like-named read-outs stand apart in the source and are kept apart here.

The target of data set [1] is T1, HIV protease (Human immunodeficiency virus type 1 group M subtype B, UniProt P04585).
T1 construct: HIV protease is diluted in the assay buffer to a final enzyme concentration of 12.3 nanomolar, based on a molecular weight of 10,780
As to the kind of experiment: HIV protease enzyme assay (fluorogenic substrate 2-aminobenzoyl-Ile-Nle-Phe(p-NO2)-Gln-ArgNH2). Format: biochemical. The source says:
The compounds of the present invention are effective HIV protease inhibitors. Utilizing an enzyme assay as described below, the compounds set forth in the examples herein disclosed inhibited the HIV enzyme. The preferred compounds of the present invention and their calculated IC50 (inhibiting concentration 50%, i.e., the concentration at which the inhibitor compound reduces enzyme activity by 50%) values are shown in Table 8. The enzyme method is described below. The substrate is 2-aminobenzoyl-Ile-Nle-Phe(p-NO2)-Gln-ArgNH2. The positive control is MVT-101 (Miller, M. et al, Science, 246, 1149 (1989)] The assay conditions are as follows:
The above described substrate is dissolved in DMSO, then diluted 10 fold in assay buffer. Final substrate concentration in the assay is 80 μM.
HIV protease is diluted in the assay buffer to a final enzyme concentration of 12.3 nanomolar, based on a molecular weight of 10,780.
The final concentration of DMSO is 14% and the final concentration of glycerol is 18%. The test compound is dissolved in DMSO and diluted in DMSO to 10× the test concentration; 10 μl of the enzyme preparation is added, the materials mixed and then the mixture is incubated at ambient temperature for 15 minutes. The enzyme reaction is initiated by the addition of 40 μl of substrate. The increase in fluorescence is monitored at 4 time points (0, 8, 16 and 24 minutes) at ambient temperature. Each assay is carried out in duplicate wells.

Data set [2] relates to HIV-1. Kind of data set: HIV inhibition assay of acutely infected CEM cells (MTT). Format: cell-based. On the procedure:
(§1) The HIV inhibition assay method of acutely infected cells is an automated tetrazolium based calorimetric assay essentially that reported by Pauses et al, J. Virol. Methods 20, 309–321 (1988). Assays were performed in 96-well tissue culture plates. CEM cells, a CD4^+ cell line, were grown in RPMI-1640 medium (Gibco) supplemented with a 10% fetal calf serum and were then treated with polybrene (2 μg/ml). An 80 μl volume of medium containing 1×10^4 cells was dispensed into each well of the tissue culture plate. To each well was added a 100 μl volume of test compound dissolved in tissue culture medium (or medium without test compound as a is control) to achieve the desired final concentration and the cells were incubated at 37° C. for 1 hour. A frozen culture of HIV-1 was diluted in culture medium to a concentration of 5×10^4 TCID50 per ml (TCID50=the dose of virus that infects 50% of cells in tissue culture), and a 20 μL volume of the virus sample (containing 1000 TCID50 of virus) was added to wells containing test compound and to wells containing only medium (infected control cells). Several wells received culture medium without virus (uninfected control cells). Likewise, the intrinsic toxicity of the test compound was determined by adding medium without virus to several wells containing test compound. In summary, the tissue culture plates contained the following experiments:
(§2) In experiments 2 and 4 the final concentrations of test compounds were 1, 10, 100 and 500 μg/ml. Either azidothymidine (AZT) or dideoxyinosine (ddI) was included as a positive drug control. […] DMSO was added to all control wells at an appropriate concentration.
(§3) Following the addition of virus, cells were incubated at 37° C. in a humidified, 5% CO2 atmosphere for 7 days. Test compounds could be added on days 0, 2 and 5 if desired. On day 7, post-infection, the cells in each is well were resuspended and a 100 μl sample of each cell suspension was removed for assay. A 20 μL volume of a 5 mg/ml solution of 3-(4,5-dimethylthiazol-2-yl)-2,5-diphenyltetrazolium bromide (MTT) was added to each 100 μL cell suspension, and the cells were incubated for 4 hours at […] in a 5% CO2 environment.
(§4) To each sample was added 100 μl of 10% sodium dodecylsulfate in 0.01 N HCl to lyse the cells, and samples were incubated overnight. The absorbance at 590 nm was determined for each sample using a Molecular Devices microplate reader. Absorbance values for each set of wells is compared to assess viral control infection, uninfected control cell response as well as test compound by cytotoxicity and antiviral efficacy.

Data set [3] has as its system CEM cells. As to the kind of experiment: Intrinsic toxicity of test compound in uninfected CEM cells (MTT). It counts as cell-based. Particulars: 7 days. On the procedure: as §1, §2, §3, §4
The mark [4] stands for this setting: Table 8, 80 μM substrate, 12.3 nanomolar enzyme, pH 6.4, read-out: IC50.
[5] abbreviates: Human immunodeficiency virus 1, CCRF-CEM, 168 h.

As to `CC(C)CCN(C[C@@H](O)[C@H](Cc1ccccc1)NC(=O)[C@H](C)C(C)(C)C(=O)OCc1ccccc1)S(=O)(=O)c1ccccc1` (relative stereo) [Entry 1], the concentration for half-maximal inhibition (IC50) in data set [1] (setting [4]) was determined as 80 nM.

`CC(C)CCN(C[C@@H](O)[C@H](Cc1ccccc1)NC(=O)[C@H](C)C(C)(C)C(=O)O)S(=O)(=O)c1ccccc1` (single isomer, unassigned) [Entry 1] came in with an EC50 in data set [2] (setting [5]) of 15 nM.

Turning to `CC(C)CCN(C[C@@H](O)[C@H](Cc1ccccc1)NC(=O)[C@H](C)C(C)(C)C(=O)O)S(=O)(=O)c1ccccc1` (single isomer, unassigned) [Entry 2], the IC50 in data set [1] (setting [4]) stood at 2 nM.

For `CC(C)CCN(C[C@@H](O)[C@H](Cc1ccccc1)NC(=O)[C@H](C)C(C)(C)C(N)=O)S(=O)(=O)c1ccccc1` (single isomer, unassigned) [Entry 2], the concentration for a half-maximal effect (EC50) in data set [2] (setting [5]) was 9 nM. Besides, the TD50 in data set [3] (human) is reported as 60,000 nm.

In the case of `CC(C)CCN(C[C@@H](O)[C@H](Cc1ccccc1)NC(=O)[C@H](C)C(C)(C)C(N)=O)S(=O)(=O)c1ccccc1` (single isomer, unassigned) [Entry 3], the concentration for half-maximal inhibition (IC50) in data set [1] (setting [4]) was found to be 2 nM.

In data set [2] (setting [5]), `CC(C)CN(C[C@@H](O)[C@H](Cc1ccccc1)NC(=O)[C@H](C)C(C)(C)C(=O)O)S(=O)(=O)c1ccccc1` [Entry 3] had an EC50 of 42 nM. Moreover, the TD50 in data set [3] (human) is reported as 220,000 nm. Besides, in data set [1] (Table 9, enzyme assay), half-maximal inhibition (IC50) was put at 1 nM.

As to `CC(C)CN(C[C@@H](O)[C@H](Cc1ccccc1)NC(=O)[C@H](C)C(C)(C)C(=O)OCc1ccccc1)S(=O)(=O)c1ccccc1` [Entry 4], in data set [1] (setting [4]), the IC50 came to 34 nM.

`CC(C)CN(C[C@@H](O)[C@H](Cc1ccccc1)NC(=O)[C@H](C)C(C)(C)C(N)=O)S(=O)(=O)c1ccccc1` [Entry 4] came in with a concentration for a half-maximal effect (EC50) in data set [2] (setting [5]) of 5 nM. Further, in data set [3] (human), the TD50 is on record as 62,000 nm.

Consider `CC(C)CN(C[C@@H](O)[C@H](Cc1ccccc1)NC(=O)[C@H](C)C(C)(C)C(=O)O)S(=O)(=O)c1ccccc1` [Entry 5], for which the half-inhibitory concentration (IC50) in data set [1] (setting [4]) amounted to 1 nM.

In data set [2] (setting [5]), `COc1ccc(S(=O)(=O)N(CC(C)C)C[C@@H](O)[C@H](Cc2ccccc2)NC(=O)[C@H](C)C(C)(C)C(=O)O)cc1` [Entry 5] yielded an EC50 of 27 nM. Besides, the TD50 in data set [3] (human) is 200,000 nm.

As to `COc1ccc(S(=O)(=O)N(CC(C)C)C[C@@H](O)[C@H](Cc2ccccc2)NC(=O)[C@H](C)C(C)(C)C(=O)OCc2ccccc2)cc1` [Entry 7], in data set [1] (setting [4]), the IC50 turned out to be 16 nM.

With `COc1ccc(S(=O)(=O)N(CC(C)C)C[C@@H](O)[C@H](Cc2ccccc2)NC(=O)[C@H](C)C(C)(C)C(=O)O)cc1` [Entry 8], the IC50 in data set [1] (setting [4]) was 2 nM.

`COc1ccc(S(=O)(=O)N(CC(C)C)C[C@@H](O)[C@H](Cc2ccccc2)NC(=O)[C@H](C)C(C)(C)C(N)=O)cc1` [Entry 9]: in data set [1] (setting [4]), the IC50 was found to be 2 nM.

For “Butanediamide, N^4-[2-hydroxy-3-[(3-methylbutyl)(phenylsulfonyl)amino]-1-(phenylmethyl)propyl]-2,2,3-Trimethyl-, [1S-[1R*(S*),2S*]]- [Table 8 Entry 3]”, the EC50 in data set [2] (Table 9, CEM cells acutely infected with HIV-1, 7 days, read-out: EC50) is 5 nM. Besides, the TD50 in data set [3] (Table 9, CEM cells without virus) is on record as 58,000 nm. Moreover, the half-maximal inhibitory concentration (IC50) in data set [1] (setting [4]) is 2 nM; in data set [1] (Table 9, enzyme assay, read-out: IC50), 2 nM.
